Laboratory results taken from patent US7300793B2, “Method for preventing the adhesion of particles” (Evotec Technologies GmbH, priority 2001, dated 2007).

Assays:
Jurkat-cells = test: Cell adherence to polystyrene culture dishes in the presence of various substances, with trypan blue vitality check (Jurkat)
Description: (§1) 50 μl of the cell suspension described above were added.
(§2) The samples were incubated for 30 minutes at 37° C. The supernatant with non-adhered cells was removed and replaced by buffer. The adherence was qualitatively evaluated (refer to table 3). The cells in both supernatant and the wells were stained with trypanblue solution (0.2%, SIGMA Aldrich GmbH, Steinheim) in order to examine the vitality of the cells.

U937-cells = test: Cell adherence to polystyrene culture dishes in the presence of various substances, with trypan blue vitality check (U937); settings: for U937 Adherence: 30 minutes at 37° C., polystyrene 24-well plate
Description: as §1, §2

Question: Which “Jurkat Adherence” value (Jurkat-cells; 0.1% in PBS, 30 minutes at 37° C., polystyrene 24-well plate) does the source give for Bovine serum albumin [BSA] here?
Answer: The value was 99.

Question: And the “U937 Adherence” value (U937-cells; 0.1% in PBS)?
Answer: Its value is 999.

Question: What about the “U937 Adherence” value (U937-cells; 0.5% in PBS) of the same substance?
Answer: Its value is 99.

Question: For polyethylene glycol 5,000 [PEG 5,000], which “Jurkat Vitality” value (Jurkat-cells) is on record?
Answer: The value was 100%.

Question: What about the “U937 Vitality” value (U937-cells) of the same substance?
Answer: Its value is 100%.

Question: polyvinyl alcohol [PVA 30,000–70,000] was tested. Which “Jurkat Vitality” value (Jurkat-cells) did it give?
Answer: Its value is 97%.

Question: What about the “U937 Vitality” value (U937-cells) of the same substance?
Answer: Its value is 98%.

Question: polyvinyl pyrrolidone 15 [PVP 15] was tested. Which “Jurkat Vitality” value (Jurkat-cells) did it give?
Answer: The value was 100%.

Question: And the “U937 Vitality” value (U937-cells)?
Answer: Its value is 100%.

Question: With polyvinyl pyrrolidone 25 [PVP 25] as the substance, how does the “Jurkat Vitality” value (Jurkat-cells) read?
Answer: Its value is 100%.

Question: What about the “U937 Vitality” value (U937-cells) of the same substance?
Answer: Its value is 100%.
